Experimental data: patent US4209588A, “Process for producing new antitumor anthracycline antibiotics” (Zaidan Hojin Biseibutsu Kagaku Kenkyu Kai, priority 1976, dated 1980)
In brackets after ≈: the same amount, converted by molar mass.

Tests used:
[1] = Acute toxicity, single intraperitoneal injection; conditions: mouse, in vivo, ip; single i.p. injection, dd mice; read-out: LD50, intraperitoneal administration
P388 leukemia = test: Inhibition of growth of P388 leukemia in mice; format: in vivo
[2] = system: solid and ascitic-type mammalian malignant tumors; test: Inhibitory action against solid and ascitic-type mammalian malignant tumors; format: in vivo, mammals
L1210 cells = test: Growth inhibition of cultured L1210 cells; conditions: Mus musculus, L1210, read-out: % Inhibition, Growth (on Day 2)
Staph. aureus FDA 209P = test: Minimum inhibitory concentration, broth dilution method; conditions: Staphylococcus aureus, FDA209P
Staph. aureus Smith = test: as above; conditions: Staphylococcus aureus
Bac. subtilis ATCC 6633 = test: as above; conditions: Bacillus subtilis, ATCC6633
Bac. cereus ATCC 9634 = test: as above; conditions: Bacillus cereus, ATCC9634
[3] = system: Bac. megaterium NRRL B-938; test: as above; conditions: Priestia megaterium, NRRLB938
Sar. lutea ATCC 9341 = test: as above; conditions: Micrococcus luteus, ATCC9341
Mic. flavus = test: as above; conditions: Micrococcus flavus
Corv. bovis 1810 = test: as above
[4] = system: Ps. fluoroescens NIHJB-254; test: as above
Pr. morganii = test: as above; conditions: Morganella morganii
[5] = system: Mycobact. smegmatis ATCC 607; test: as above
Can. albicans IAM 4905 = test: as above; conditions: Candida albicans, IAM4905
Can. tropicalis IAM 4942 = test: as above; conditions: Candida tropicalis, IAM4942
[6] = P388 leukemia in mice, in words
[7] = solid and ascitic-type mammalian tumors, in words

Row | SMILES | LD50 [1] [mg/kg] | inhibiting the growth of P388 leukemia (P388 leukemia; [6]) | inhibitory action against malignant tumors [2, 7] | inhibition at 0.1 µg/mL (L1210 cells) [%] | MIC (Staph. aureus FDA 209P) [µg/mL] | MIC (Staph. aureus Smith) [µg/mL] | MIC (Bac. subtilis ATCC 6633) [µg/mL] | MIC (Bac. cereus ATCC 9634) [µg/mL] | MIC [3] [µg/mL] | MIC (Sar. lutea ATCC 9341) [µg/mL] | MIC (Mic. flavus) [µg/mL] | MIC (Corv. bovis 1810) [µg/mL] | MIC [4] [µg/mL] | MIC (Pr. morganii) [µg/mL] | MIC [5] [µg/mL] | MIC (Can. albicans IAM 4905) [µg/mL] | MIC (Can. tropicalis IAM 4942) [µg/mL] | inhibiting the growth of P388 leukemia (P388 leukemia; mouse, in vivo) | inhibitory action against malignant tumors ([2]; in vivo)
1 | CC[C@@]1(O)C[C@H](O[C@H]2C[C@H](N(C)C)[C@H](O[C@H]3C[C@H](O)[C@H](O[C@H]4C[C@H](O)[C@H](O)[C@H](C)O4)[C@H](C)O3)[C@H](C)O2)c2c(cc3c(c2O)C(=O)c2c(O)cccc2C3=O)[C@H]1C(=O)OC [MA 144-U1] | 30.2 | effective in inhibiting the growth of malignant tumors | marked inhibitory action | 78.5 | 6.25 (≈ 7.53 µM) | 3.1 (≈ 3.74 µM) | 3.1 (≈ 3.74 µM) | 1.56 (≈ 1.88 µM) | 3.1 (≈ 3.74 µM) | 1.56 (≈ 1.88 µM) | 1.56 (≈ 1.88 µM) | 6.25 (≈ 7.53 µM) | > 100 | > 100 | > 100 | > 100 | > 100 |  | 
2 | CC[C@@]1(O)C[C@H](O[C@H]2C[C@H](N(C)C)[C@H](O[C@H]3C[C@H](O)[C@H](O[C@H]4CCC(=O)[C@H](C)O4)[C@H](C)O3)[C@H](C)O2)c2c(cc3c(c2O)C(=O)c2c(O)cccc2C3=O)[C@H]1C(=O)OC [Aclacinomycin, reference compound] |  |  |  | 89.7 |  |  |  |  |  |  |  |  |  |  |  |  |  |  | 
3 | CC[C@@]1(O)C[C@H](O[C@H]2C[C@H](N(C)C)[C@H](O[C@H]3C[C@H](O)[C@H](O[C@H]4C=CC(=O)[C@H](C)O4)[C@H](C)O3)[C@H](C)O2)c2c(cc3c(c2O)C(=O)c2c(O)cccc2C3=O)[C@H]1C(=O)OC [MA 144-Y] | 40 to 50 | effective in inhibiting the growth of malignant tumors | marked inhibitory action | 90.2 | 0.4 (≈ 0.494 µM) | 0.2 (≈ 0.247 µM) | 0.2 (≈ 0.247 µM) | 0.1 (≈ 0.123 µM) | 0.2 (≈ 0.247 µM) | 0.2 (≈ 0.247 µM) | 0.1 (≈ 0.123 µM) | 0.2 (≈ 0.247 µM) | > 100 | > 100 | 3.1 (≈ 3.83 µM) | > 100 | > 100 |  | 
4 | CC[C@@]1(O)C[C@H](O[C@H]2C[C@H](N(C)C)[C@H](O[C@H]3C[C@H](O)[C@H](OC4CCC(=O)C(C)O4)[C@H](C)O3)[C@H](C)O2)c2c(cc3c(c2O)C(=O)c2c(O)cccc2C3=O)[C@H]1C(=O)OC (stereo partly drawn) [D-cinerulosyl-2-deoxy-L-fucosyl-L-rhodosaminyl-alkavinone] | 28.5 |  |  | 80.7 | 6.25 (≈ 7.7 µM) | 1.56 (≈ 1.92 µM) | 3.12 (≈ 3.84 µM) | 1.56 (≈ 1.92 µM) | 6.25 (≈ 7.7 µM) | 0.78 (≈ 0.961 µM) | 0.2 (≈ 0.246 µM) | 1.56 (≈ 1.92 µM) | 100 (≈ 123 µM) | > 100 | 3.12 (≈ 3.84 µM) | 100 (≈ 123 µM) | 100 (≈ 123 µM) | effective in inhibiting the growth of malignant tumors | marked inhibitory action
5 | CC[C@@]1(O)C[C@H](O[C@H]2C[C@H](NC)[C@H](O[C@H]3C[C@H](O)[C@H](O[C@H]4CCC(=O)[C@H](C)O4)[C@H](C)O3)[C@H](C)O2)c2c(cc3c(c2O)C(=O)c2c(O)cccc2C3=O)[C@H]1C(=O)OC [MA 144-L] | 45.5 | effective in inhibiting the growth of malignant tumors | marked inhibitory action | 27.4 | 6.25 (≈ 7.83 µM) | 1.56 (≈ 1.96 µM) | 3.1 (≈ 3.89 µM) | 1.56 (≈ 1.96 µM) | 6.25 (≈ 7.83 µM) | 0.78 (≈ 0.978 µM) | 0.2 (≈ 0.251 µM) | 1.56 (≈ 1.96 µM) | 100 (≈ 125 µM) | > 100 | 3.1 (≈ 3.89 µM) | 100 (≈ 125 µM) | 100 (≈ 125 µM) |  | 
6 | CC[C@@]1(O)C[C@H](O[C@H]2C[C@H](N(C)C)[C@H](O[C@H]3C[C@H](O)[C@H](OC4CCC(=O)C(C)O4)[C@H](C)O3)[C@H](C)O2)c2c(cc3c(c2O)C(=O)c2c(O)ccc(O)c2C3=O)[C@H]1C(=O)OC (stereo partly drawn) [D-cinerulosyl-2-deoxy-L-fucosyl-L-rhodosaminyl-ε-pyrromycinone] | 17 |  |  | 82.1 | 3.12 (≈ 3.77 µM) | 1.56 (≈ 1.88 µM) | 1.56 (≈ 1.88 µM) | 0.78 (≈ 0.942 µM) | 6.25 (≈ 7.55 µM) | 0.78 (≈ 0.942 µM) | 0.2 (≈ 0.242 µM) | 0.78 (≈ 0.942 µM) | 100 (≈ 121 µM) | > 100 | 3.12 (≈ 3.77 µM) | > 100 | > 100 | effective in inhibiting the growth of malignant tumors | marked inhibitory action
7 | CC[C@@]1(O)C[C@H](O[C@H]2C[C@H](N(C)C)[C@H](O[C@H]3C[C@H](O)[C@H](O[C@H]4CC[C@H](O)[C@H](C)O4)[C@H](C)O3)[C@H](C)O2)c2c(cc3c(c2O)C(=O)c2c(O)cccc2C3=O)[C@H]1C(=O)OC [MA 144-N1] | 32.5 | effective in inhibiting the growth of malignant tumors | marked inhibitory action | 79.2 | 6.25 (≈ 7.68 µM) | 0.78 (≈ 0.958 µM) | 3.1 (≈ 3.81 µM) | 0.78 (≈ 0.958 µM) | 3.1 (≈ 3.81 µM) | 0.78 (≈ 0.958 µM) | 0.4 (≈ 0.491 µM) | 0.78 (≈ 0.958 µM) | > 100 | > 100 | > 100 | > 100 | > 100 |  | 
8 | CC[C@@]1(O)C[C@H](O[C@H]2C[C@H](N(C)C)[C@H](O[C@H]3C[C@H](O)[C@H](O)[C@H](C)O3)[C@H](C)O2)c2c(cc3c(c2O)C(=O)c2c(O)ccc(O)c2C3=O)[C@H]1C(=O)OC [MA 144-S2] | 12.5 | effective in inhibiting the growth of malignant tumors |  | 88.1 | 6.25 (≈ 8.73 µM) | 0.78 (≈ 1.09 µM) | 3.1 (≈ 4.33 µM) | 0.78 (≈ 1.09 µM) | 3.1 (≈ 4.33 µM) | 1.56 (≈ 2.18 µM) | 0.78 (≈ 1.09 µM) | 0.78 (≈ 1.09 µM) | > 100 | > 100 | > 100 | > 100 | > 100 |  | 
9 | CC[C@@]1(O)C[C@H](O[C@H]2C[C@H](N(C)C)[C@H](O[C@H]3C[C@H](O)[C@H](O[C@H]4C[C@H](O)[C@H](O)[C@H](C)O4)[C@H](C)O3)[C@H](C)O2)c2c(cc3c(c2O)C(=O)c2c(O)ccc(O)c2C3=O)[C@H]1C(=O)OC [MA 144-U2] | 14.5 |  |  | 80.5 | 3.1 (≈ 3.66 µM) | 0.78 (≈ 0.922 µM) | 3.1 (≈ 3.66 µM) | 1.56 (≈ 1.84 µM) | 1.56 (≈ 1.84 µM) | 1.56 (≈ 1.84 µM) | 0.78 (≈ 0.922 µM) | 6.25 (≈ 7.39 µM) | > 100 | > 100 | > 100 | > 100 | > 100 | effective in inhibiting the growth of malignant tumors | 
